Measurements taken from patent US20240254087A1, “SELECTIVE, PARTIAL, AND ARRESTIN-BIASED 5-HT2A AGONISTS WITH UTILITY IN VARIOUS DISORDERS” (Saint Joseph's University, priority 2021, published 2024).
Where two headings read alike, the source gives them in different places.

Legend:
Parameters in all cases: expressed in transfected cells; host or cells: HEK293T, transient
5-HT2A [1] = target: T1, 5-HT2A (Homo sapiens, UniProt P28223); experiment: cell-based; conditions: for Emax: read-out: 5-HT2A Gq Emax (% 5-HT), BRET, mean ± SEM
T1 sequence (P28223 whole entry): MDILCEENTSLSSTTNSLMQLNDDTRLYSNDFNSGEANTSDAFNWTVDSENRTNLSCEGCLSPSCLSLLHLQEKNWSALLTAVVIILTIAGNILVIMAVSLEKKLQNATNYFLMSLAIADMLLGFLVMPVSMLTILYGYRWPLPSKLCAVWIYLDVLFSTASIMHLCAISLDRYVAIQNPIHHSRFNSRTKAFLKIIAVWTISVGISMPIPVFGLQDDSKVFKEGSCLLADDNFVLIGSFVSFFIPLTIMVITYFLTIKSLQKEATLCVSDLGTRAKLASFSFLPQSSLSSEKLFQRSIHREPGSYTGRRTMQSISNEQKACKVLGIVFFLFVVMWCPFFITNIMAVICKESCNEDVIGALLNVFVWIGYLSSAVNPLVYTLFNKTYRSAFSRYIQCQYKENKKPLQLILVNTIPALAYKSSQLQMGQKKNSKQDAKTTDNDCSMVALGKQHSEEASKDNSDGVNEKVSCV
Protocol: (§1) After at least 18-24 hours, transfected cells were plated in poly-lysine coated 96-well white clear bottom cell culture plates in DMEM containing 1% dialyzed FBS at a density of 25-40,000 cells in 200 μL per well and incubated overnight. After approximately 20-24 hours, media was decanted and cells were washed with 60 μL of drug buffer (1×HBSS, 20 mM HEPES, pH 7.4), followed by 60 μL of drug buffer and pre-incubated in a humidified atmosphere at 37° C. before receiving drug stimulation. Drug stimulation was induced by adding 30 μL of a solution of drug (3X) diluted in McCorvy buffer (1×HBSS, 20 mM HEPES, pH 7.4, supplemented with 0.3% BSA fatty acid free, 0.03% ascorbic acid) and plates were incubated at the indicated time and temperature. Fifteen minutes before reading, 10 μL of the RLuc substrate, either coelenterazine h for β-Arrestin recruitment BRET^1 or coelenterazine 400a for Gq dissociation BRET^2 (Prolume/Nanolight, 5 μM final concentration) was addedper well. […] The BRET ratios of fluorescence/luminescence were calculated per well and were plotted as a function of drug concentration using Graphpad Prism 8 (Graphpad Software Inc., San Diego, CA).

5-HT2A [2] = target: T1, 5-HT2A; experiment: cell-based; conditions: for Emax: read-out: 5-HT2A β-arrestin Emax (% 5-HT), BRET, mean ± SEM
Protocol: as §1

5-HT2B = 5-HT2B (Homo sapiens, UniProt P41595); experiment: BRET Gq dissociation, 5-HT2B; assay type: cell-based
Chain of 5-HT2B (P41595 whole entry): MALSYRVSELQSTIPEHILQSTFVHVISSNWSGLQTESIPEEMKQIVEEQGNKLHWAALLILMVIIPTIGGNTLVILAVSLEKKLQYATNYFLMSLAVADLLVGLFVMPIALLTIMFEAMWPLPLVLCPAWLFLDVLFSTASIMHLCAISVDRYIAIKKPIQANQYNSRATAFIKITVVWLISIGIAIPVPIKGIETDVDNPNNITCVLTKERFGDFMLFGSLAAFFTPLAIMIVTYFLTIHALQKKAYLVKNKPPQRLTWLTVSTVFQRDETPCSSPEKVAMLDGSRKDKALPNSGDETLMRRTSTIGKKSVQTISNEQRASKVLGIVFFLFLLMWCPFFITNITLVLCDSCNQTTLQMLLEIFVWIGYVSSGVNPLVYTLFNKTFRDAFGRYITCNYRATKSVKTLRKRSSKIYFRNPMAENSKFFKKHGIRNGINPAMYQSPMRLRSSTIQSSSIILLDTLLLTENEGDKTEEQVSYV
Protocol: After at least 18-24 hours, transfected cells were plated in poly-lysine coated 96-well white clear bottom cell culture plates in DMEM containing 1% dialyzed FBS at a density of 25-40,000 cells in 200 μL per well and incubated overnight. After approximately 20-24 hours, media was decanted and cells were washed with 60 μL of drug buffer (1×HBSS, 20 mM HEPES, pH 7.4), followed by 60 μL of drug buffer and pre-incubated in a humidified atmosphere at 37° C. before receiving drug stimulation. Drug stimulation was induced by adding 30 μL of a solution of drug (3X) diluted in McCorvy buffer (1×HBSS, 20 mM HEPES, pH 7.4, supplemented with 0.3% BSA fatty acid free, 0.03% ascorbic acid) and plates were incubated at the indicated time and temperature. Fifteen minutes before reading, 10 μL of the RLuc substrate, either coelenterazine h for β-Arrestin recruitment BRET^1 or coelenterazine 400a for Gq dissociation BRET^2 (Prolume/Nanolight, 5 μM final concentration) was addedper well. Plates were read for luminescence at 485 nm and fluorescent eYFP emission at 530 nm for BRET^1 and at 400 nm and fluorescent GFP2 emission at 510 nm for BRET2 at 1 second per well using a Mithras LB940 (Berthold). The BRET ratios of fluorescence/luminescence were calculated per well and were plotted as a function of drug concentration using Graphpad Prism 8 (Graphpad Software Inc., San Diego, CA).

5-HT2C = target: T2, 5-HT2C (Homo sapiens, UniProt P28335); experiment: BRET Gq dissociation, 5-HT2C; assay type: cell-based; conditions: for Emax: read-out: 5-HT2C Gq Dissociation (BRET) EMAX ± SEM (%5-HT); for EC50: read-out: 5-HT2C Gq Dissociation (BRET) pEC50 ± SEM (converted)
T2 sequence (P28335 33-458): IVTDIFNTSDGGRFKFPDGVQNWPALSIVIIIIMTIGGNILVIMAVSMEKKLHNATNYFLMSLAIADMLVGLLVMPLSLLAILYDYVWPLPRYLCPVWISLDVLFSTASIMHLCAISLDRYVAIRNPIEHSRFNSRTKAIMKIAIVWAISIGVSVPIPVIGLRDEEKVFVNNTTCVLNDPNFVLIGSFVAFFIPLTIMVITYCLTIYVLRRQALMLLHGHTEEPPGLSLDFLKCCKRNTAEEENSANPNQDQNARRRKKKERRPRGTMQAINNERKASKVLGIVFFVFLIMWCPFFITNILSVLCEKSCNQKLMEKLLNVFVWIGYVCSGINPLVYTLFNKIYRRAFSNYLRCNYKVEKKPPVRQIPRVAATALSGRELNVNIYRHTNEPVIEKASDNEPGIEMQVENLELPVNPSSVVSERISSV
Protocol: as §1

[3] = BRET, mean ± SEM, read-out: 5-HT2A Gq dissociation pEC50 (converted)
[4] = BRET, mean ± SEM, read-out: 5-HT2A β-arrestin recruitment pEC50 (converted)

Compound	EC50 (5-HT2A [1]; [3])	Emax (5-HT2A [1])	EC50 (5-HT2A [2]; [4])	Emax (5-HT2A [2])	5-HT2B Gq Dissociation (BRET) EMAX ± SEM (%5-HT) (5-HT2B)	5-HT2B Gq Dissociation (BRET) pEC50 ± SEM (5-HT2B)	Emax (5-HT2C)	EC50 (5-HT2C)	EC50 (5-HT2A [1])	5-HT2A Gq dissociation pEC50 (5-HT2A [1]; BRET, mean ± SEM)	EC50 (5-HT2A [2])
COc1cc(OC)c(OC)cc1CCNCc1cccc(C)c1C [(50)]	3.47 nM	23.6 ± 1%	5.75 nM	73.9 ± 5.4%	No activity	No activity	30.4 ± 2.7%	1.55 nM	–	–	–
CCOc1ccc(CCNCc2cccc3ccccc23)cc1OC [(37)]	–	29.3 ± 1.9%	–	75.4 ± 2.4%	No activity	No activity	84.5 ± 2.8%	263 nM	–	–	–
COc1cc(CCNCc2cccc(C)c2O)ccc1Cl [(47)]	30.9 nM	66.9 ± 1.8%	6.92 nM	80.5 ± 3.2%	No activity	No activity	98 ± 3.1%	19.5 nM	–	–	–
COc1cc(OC)c(OC)cc1CCNCc1cccc(I)c1O [(49)]	14.5 nM	52.8 ± 1.5%	11.7 nM	80.5 ± 5.5%	No activity	No activity	93.5 ± 3.1%	26.9 nM	–	–	–
COc1cc(Br)cc(OC)c1CCNCc1cccc2ccccc12 [(32)]	3.89 nM	33 ± 1.1%	1.05 nM	85.5 ± 2%	No activity	No activity	81 ± 1.6%	6.31 nM	–	–	–
COc1cc(Cl)ccc1CC(C)NCc1cccc(C)c1O (stereo not shown) [(46)]	4.79 nM	67.8 ± 1.6%	1.12 nM	72.9 ± 5.6%	No activity	No activity	95.5 ± 3.2%	11.5 nM	–	–	–
COc1cc(OC)c(OC)cc1CCNCc1cccc(-c2ccccc2)c1 [(62)]	–	23.7 ± 2.1%	56.2 nM	112 ± 6.2%	No activity	No activity	72.8 ± 5.2%	219 nM	182 nM	–	–
COc1cc(Br)cc(OC)c1CC(C)NCc1cccc2ccccc12 (stereo not shown) [(33)]	31.6 nM	36.6 ± 1.1%	4.9 nM	98.3 ± 3.3%	No activity	No activity	80.3 ± 2.4%	64.6 nM	–	–	–
COc1cc(Br)c(CCNCc2cccc3ccccc23)cc1OC [(30)]	42.7 nM	32.3 ± 1.6%	4.47 nM	65.1 ± 3%	No activity	No activity	81.4 ± 3.4%	66.1 nM	–	–	–
COc1cc(OC)c(OC)cc1CCNCc1cccc2c1CCC2 [(51)]	1.7 nM	41.2 ± 1.9%	3.31 nM	72.9 ± 4.2%	No activity	No activity	52.5 ± 5.2%	93.3 nM	–	–	–
COc1cc(OC)c(OC)cc1CCNCc1cccc(-c2ccccc2)c1O [(63)]	–	< 10%	–	117 ± 14.6%	No activity	No activity	79.2 ± 2.6%	51.3 nM	–	No activity	102 nM
COc1cc(CCNCc2cccc3ccccc23)ccc1Cl [(40)]	–	29.9 ± 1.8%	–	80.8 ± 3.8%	No activity	No activity	87.8 ± 2%	97.7 nM	–	–	–
COc1cc(CCNCc2cccc(C)c2O)cc(OC)c1Br [(44)]	12 nM	70.4 ± 1.2%	11.2 nM	66.1 ± 2.8%	No activity	No activity	80.2 ± 2.1%	7.08 nM	–	–	–
COc1cc(Br)c(Br)c(OC)c1CCNCc1cccc2ccccc12 [(35)]	3.89 nM	30.2 ± 1.5%	1.95 nM	–	No activity	No activity	69.8 ± 1.3%	5.5 nM	–	–	–
COc1cc(OC)c(OC)cc1CCNCc1cccc2ncccc12 [(57)]	–	34.2 ± 4%	–	92 ± 8.9%	No activity	No activity	77.6 ± 3.2%	200 nM	–	–	–
COc1cc(Br)ccc1CCNCc1cccc2ccccc12 [(36)]	–	26.3 ± 1.2%	–	80.2 ± 3.1%	No activity	No activity	76 ± 1.8%	24.5 nM	–	–	–
COc1cc(OC)c(OC)cc1CCNCc1cccc2c1CCCC2 [(52)]	7.59 nM	43.7 ± 1.1%	1.78 nM	65 ± 4.9%	No activity	No activity	43.6 ± 3.8%	34.7 nM	–	–	–
